According to the Kinase Knowledgebase extract (Sharma et al. 2016):

Molecular target: CDK2 (human) (UniProt P24941)
Test: Enzyme Assay

Ki, < 1 µM:
Cc1cc(Nc2nc(Nc3ccc4c(=O)[nH][nH]c4c3)nc3c2CCN(Cc2ccccc2)C3)n[nH]1, Cc1cc(Nc2cc(-c3ccc(OCCCN(C)C)cc3)nc(Sc3ccc4c(=O)[nH][nH]c4c3)n2)n[nH]1, Cn1cnc(NC2CCCC2CNc2ccc3c(=O)[nH][nH]c3c2)c1 (stereo not given), Cc1cc(Nc2nc(-c3ccc4[nH][nH]c(=O)c4c3)nc3ccsc23)n[nH]1, Cc1cc(Nc2cc(-c3cccc([N+](=O)[O-])c3)nc(Nc3ccc4c(=O)[nH][nH]c4c3)n2)n[nH]1, Nc1ncc2c(Nc3n[nH]c4ccccc34)nc(-c3ccc4[nH][nH]c(=O)c4c3C(F)(F)F)nc2n1, NC1CCCCC1c1cc(Nc2n[nH]c3ccccc23)nc(-c2ccc3[nH][nH]c(=O)c3c2C(F)(F)F)n1 (stereo not given), Cc1cnc(NC2CCC(Cc3ccc4c(=O)[nH][nH]c4c3)C2)s1 (stereo not given), O=c1[nH][nH]c2cc(C(F)(F)F)c(-c3cc(-c4ccncc4)nc(Nc4cc(C5CC5)[nH]n4)n3)cc12, O=c1[nH][nH]c2cc(SCCONc3cc(C4CC4)[nH]n3)ccc12, Cc1cc(Nc2nc(CCc3ccc4[nH][nH]c(=O)c4c3)nc3c2CCCC3)n[nH]1, O=c1[nH][nH]c2cc(OCC3CCCC(Nc4nccnn4)C3)ccc12 (stereo not given), Cc1cc(Nc2nc(-c3c(C)cc4[nH][nH]c(=O)c4c3C)nc3ccccc23)n[nH]1, Cc1cnc(NC(CCNc2ccc3c(=O)[nH][nH]c3c2)c2ccccc2)s1 (stereo not given), O=c1[nH][nH]c2cc(OCCCNc3ccccn3)ccc12, Cc1cc(Nc2cc(CN(C)C)nc(Sc3ccc4c(=O)[nH][nH]c4c3)n2)n[nH]1, Cc1cnc(NC2COCC(Oc3ccc4c(=O)[nH][nH]c4c3)C2)s1 (stereo not given), Cc1cnc(NC2CCCC(Oc3ccc4c(=O)[nH][nH]c4c3)C2)s1 (stereo not given), O=c1[nH][nH]c2cc(Cl)c(-c3cc(Nc4cc(C5CC5)[nH]n4)c4ccccc4n3)cc12, O=c1[nH][nH]c2cc(Cl)c(-c3cc(C4CCCCC4)nc(Nc4n[nH]c5ccccc45)n3)cc12, O=C(CC(=O)Nc1nccnn1)Nc1ccc2c(=O)[nH][nH]c2c1, CC(C)c1cc(Nc2nc(Nc3ccc4c(=O)[nH][nH]c4c3)nc3ccc(-c4ccccc4)cc23)n[nH]1, Cc1cc(Nc2cc(-c3c(C)cccc3C)nc(Sc3ccc4c(=O)[nH][nH]c4c3)n2)n[nH]1, O=c1[nH][nH]c2cc(OCC3CCCC3Nc3nccnn3)ccc12 (stereo not given), Cc1cnc(NC2CCCC(Sc3ccc4c(=O)[nH][nH]c4c3)C2)s1 (stereo not given), COCCNc1cc(Nc2cc(C)[nH]n2)nc(SCc2ccc3c(=O)[nH][nH]c3c2)n1, Cc1cc(Nc2nc(Sc3ccc4c(=O)[nH][nH]c4c3)nc3cc(OCCCN4CCOCC4)ccc23)n[nH]1, O=c1[nH][nH]c2ccc(OCc3cc4ccccc4c(Nc4cc(C5CC5)[nH]n4)n3)cc12, O=c1[nH][nH]c2cc(COc3cc(Nc4n[nH]c5ccccc45)ccn3)ccc12, Cn1cnc(NC2CCCC2CSc2ccc3c(=O)[nH][nH]c3c2)c1 (stereo not given), O=c1[nH][nH]c2cc(Nc3ncc(Nc4ccccc4)c(Nc4cc(C5CC5)[nH]n4)n3)ccc12, O=c1[nH][nH]c2cc(SC3CCC(Nc4cc(C5CC5)[nH]n4)C3)ccc12 (stereo not given), Cc1cnc(NCCC(Cc2ccccc2)Sc2ccc3c(=O)[nH][nH]c3c2)s1 (stereo not given), O=c1[nH][nH]c2cc(OC3CCC(Nc4ccccn4)C3)ccc12 (stereo not given), Cc1cnc(NOCCOc2ccc3c(=O)[nH][nH]c3c2)s1, CCc1c(-c2nc(Nc3cc(C)[nH]n3)c3ccccc3n2)ccc2[nH][nH]c(=O)c12, O=c1[nH][nH]c2cc(C(F)(F)F)c(-c3cc(-c4ccccc4)cc(Nc4n[nH]c5ccccc45)n3)cc12, O=c1[nH][nH]c2cc(Nc3nc(Cl)nc(Nc4cc(C5CC5)[nH]n4)n3)ccc12, O=C(CCOc1ccc2c(=O)[nH][nH]c2c1)Nc1nccnn1, O=c1[nH][nH]c2ccc(-c3nc(Nc4n[nH]c5ccccc45)cc(-c4ccccn4)n3)c(C(F)(F)F)c12, C#Cc1c(-c2nc(Nc3n[nH]c4ccc(F)cc34)c3ccccc3n2)ccc2[nH][nH]c(=O)c12, Cc1cc(Nc2nc([C@@H]3C[C@H]3c3ccc4c(=O)[nH][nH]c4c3)nc3ccccc23)n[nH]1, O=c1[nH][nH]c2cc(C3CC3C3COCC(Nc4nccnn4)C3)ccc12 (stereo not given), O=c1[nH][nH]c2ccc(-c3nc(Nc4cc(C5CC5)[nH]n4)nc(-c4ccccc4)n3)cc12, CCc1cc(Nc2nc(Nc3ccc4c(=O)[nH][nH]c4c3)nc3ccc(-c4ccccc4)cc23)n[nH]1, Cc1cnc(NCCC(=O)Oc2ccc3c(=O)[nH][nH]c3c2)s1, O=C1CCCN(c2cc(-c3cc4c(=O)[nH][nH]c4cc3Cl)nc(Nc3n[nH]c4ccc(F)cc34)n2)C1, O=c1[nH][nH]c2cc(Nc3cccc(Nc4n[nH]c5ccccc45)n3)ccc12, O=c1[nH][nH]c2cc(OC(CCNc3cc(C4CC4)[nH]n3)Cc3ccccc3)ccc12 (stereo not given), O=c1[nH][nH]c2cc(SCCC(Nc3ccccn3)c3ccccc3)ccc12 (stereo not given), O=c1[nH][nH]c2cc(Oc3nc(Nc4cc(C5CC5)[nH]n4)cc(-c4ccccc4)n3)ccc12, Cc1ccc2nc(Nc3ccc4c(=O)[nH][nH]c4c3)nc(Nc3cc(C)[nH]n3)c2n1, Cc1cc(Nc2cc(C(=O)N3CCN(C)CC3)nc(Sc3ccc4c(=O)[nH][nH]c4c3)n2)n[nH]1, Cc1cc(Nc2cc(-c3ccccc3)nc(Sc3ccc4c(=O)[nH][nH]c4c3)n2)n[nH]1, Cc1cc(Nc2cc(-c3cc4c(=O)[nH][nH]c4cc3Cl)nc3c2CCCC3)n[nH]1, O=c1[nH][nH]c2ccc(-c3nc(Nc4n[nH]c5c(F)cccc45)c4ccncc4n3)c(Cl)c12, O=c1[nH][nH]c2cc(Nc3nc(Nc4cc(C5CCCC5)[nH]n4)c4ccccc4n3)ccc12, Cc1nc(Nc2ccc3c(=O)[nH][nH]c3c2)nc(Nc2cc(C3CC3)[nH]n2)n1, Cc1cc(Nc2cc(COCCN(C)C)nc(Sc3ccc4c(=O)[nH][nH]c4c3)n2)n[nH]1, Cc1cc(Nc2cccc(Sc3ccc4c(=O)[nH][nH]c4c3)n2)n[nH]1, O=c1[nH][nH]c2cc(NOCCNc3cc(C4CC4)[nH]n3)ccc12, O=c1[nH][nH]c2cc(NC(CCNc3cc(C4CC4)[nH]n3)Cc3ccccc3)ccc12 (stereo not given), O=C(CC(=O)Nc1ccccn1)Nc1ccc2c(=O)[nH][nH]c2c1, CCCCOC(=O)c1cc(Nc2cc(C)[nH]n2)nc(Sc2ccc3c(=O)[nH][nH]c3c2)n1, COCCCc1cc(Nc2nc(-c3ccc4[nH][nH]c(=O)c4c3)nc3ccccc23)n[nH]1, Cc1cc(Nc2cc(Cc3ccc4c(=O)[nH][nH]c4c3)nc3ccccc23)n[nH]1, Cc1cnc(NCCC(Cc2ccccc2)Oc2ccc3c(=O)[nH][nH]c3c2)s1 (stereo not given), Cn1cnc(NC2COCC(Oc3ccc4c(=O)[nH][nH]c4c3)C2)c1 (stereo not given), Cc1cc(Nc2nc(Sc3ccc4c(=O)[nH][nH]c4c3)nc3c(OCCCN(C)C)cccc23)n[nH]1, Cc1cc(Nc2nc(Cc3ccc4c(=O)[nH][nH]c4c3)nc3c2CCN(Cc2ccccc2)C3)n[nH]1, O=c1[nH][nH]c2ccc(-c3cc4ccccc4c(Nc4n[nH]c5c(F)cc(F)cc45)n3)c(C(F)(F)F)c12, O=c1[nH][nH]c2ccc(-c3nnc(C4CCNCC4)c(Nc4n[nH]c5ccccc45)n3)c(C(F)(F)F)c12, Cn1cnc(NC2COCC(Nc3ccc4c(=O)[nH][nH]c4c3)C2)c1 (stereo not given), O=c1[nH][nH]c2cc(Oc3nccc(Nc4cc(C5CC5)[nH]n4)n3)ccc12, O=c1[nH][nH]c2cc(Nc3nc(Nc4cc(-c5ccco5)[nH]n4)cc(-c4ccccc4)n3)ccc12, O=c1[nH][nH]c2cc(OCCC(Nc3ccccn3)c3ccccc3)ccc12 (stereo not given), O=c1[nH][nH]c2cc(CCCC(Nc3ccccn3)c3ccccc3)ccc12 (stereo not given), Cc1cnc(NC(=O)CC(=O)Oc2ccc3c(=O)[nH][nH]c3c2)s1, Cc1cnc(NC(=O)CC(=O)Nc2ccc3c(=O)[nH][nH]c3c2)s1, Cc1cc(Nc2cc(CSc3ccc4c(=O)[nH][nH]c4c3)nc3ccccc23)n[nH]1, Cc1cc(Nc2nc(-c3ccc4[nH][nH]c(=O)c4c3Cl)nc(C)c2C)n[nH]1, Cc1cnc(NC2COCC(C(C)(C)c3ccc4c(=O)[nH][nH]c4c3)C2)s1 (stereo not given), Cn1cnc(NC2CCCC2CCc2ccc3c(=O)[nH][nH]c3c2)c1 (stereo not given), COCc1cc(Nc2nc(Nc3ccc4c(=O)[nH][nH]c4c3)nc3ccccc23)n[nH]1, O=c1[nH][nH]c2cc(Cc3nc(Nc4cc(C5CC5)[nH]n4)c4ccccc4n3)ccc12
